The target of assay [1] is T1, Ephrin type-B receptor 2 (Homo sapiens) (UniProt P29323).
T1 sequence (whole entry): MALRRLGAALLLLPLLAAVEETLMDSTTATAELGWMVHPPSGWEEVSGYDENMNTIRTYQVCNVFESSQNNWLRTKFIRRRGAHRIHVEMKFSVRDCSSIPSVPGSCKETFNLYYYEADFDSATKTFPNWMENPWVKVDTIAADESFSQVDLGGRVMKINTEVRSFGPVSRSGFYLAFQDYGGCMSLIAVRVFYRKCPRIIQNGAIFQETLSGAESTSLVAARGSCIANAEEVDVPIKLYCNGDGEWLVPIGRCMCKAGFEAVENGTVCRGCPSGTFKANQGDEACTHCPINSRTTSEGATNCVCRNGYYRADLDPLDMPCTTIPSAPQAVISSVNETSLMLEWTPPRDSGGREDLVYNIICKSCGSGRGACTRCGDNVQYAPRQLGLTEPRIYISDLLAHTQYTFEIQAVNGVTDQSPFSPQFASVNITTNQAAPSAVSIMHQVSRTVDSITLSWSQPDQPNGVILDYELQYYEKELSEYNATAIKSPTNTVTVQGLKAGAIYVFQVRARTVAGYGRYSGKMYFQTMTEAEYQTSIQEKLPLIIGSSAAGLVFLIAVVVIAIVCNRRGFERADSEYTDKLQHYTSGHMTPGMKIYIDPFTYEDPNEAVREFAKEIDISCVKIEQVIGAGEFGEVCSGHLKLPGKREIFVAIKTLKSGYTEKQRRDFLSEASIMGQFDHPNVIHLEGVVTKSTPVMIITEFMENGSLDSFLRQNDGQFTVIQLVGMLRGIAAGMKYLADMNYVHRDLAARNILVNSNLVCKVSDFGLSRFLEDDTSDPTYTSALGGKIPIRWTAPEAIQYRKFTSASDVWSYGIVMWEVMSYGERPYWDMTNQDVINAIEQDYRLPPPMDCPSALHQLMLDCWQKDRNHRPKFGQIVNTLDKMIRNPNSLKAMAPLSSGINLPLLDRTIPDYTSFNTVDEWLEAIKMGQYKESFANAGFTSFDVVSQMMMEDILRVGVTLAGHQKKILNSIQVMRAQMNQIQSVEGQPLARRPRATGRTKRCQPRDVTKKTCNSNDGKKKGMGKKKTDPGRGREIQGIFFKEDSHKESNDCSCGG
The assay is described as follows: Inhibition of human EPHB2 at 18.6 nM by HotSpot assay relative to control.

In assay [2] the target is T2, Serine/threonine-protein kinase 4 (Homo sapiens) (UniProt Q13043).
T2 sequence (whole entry): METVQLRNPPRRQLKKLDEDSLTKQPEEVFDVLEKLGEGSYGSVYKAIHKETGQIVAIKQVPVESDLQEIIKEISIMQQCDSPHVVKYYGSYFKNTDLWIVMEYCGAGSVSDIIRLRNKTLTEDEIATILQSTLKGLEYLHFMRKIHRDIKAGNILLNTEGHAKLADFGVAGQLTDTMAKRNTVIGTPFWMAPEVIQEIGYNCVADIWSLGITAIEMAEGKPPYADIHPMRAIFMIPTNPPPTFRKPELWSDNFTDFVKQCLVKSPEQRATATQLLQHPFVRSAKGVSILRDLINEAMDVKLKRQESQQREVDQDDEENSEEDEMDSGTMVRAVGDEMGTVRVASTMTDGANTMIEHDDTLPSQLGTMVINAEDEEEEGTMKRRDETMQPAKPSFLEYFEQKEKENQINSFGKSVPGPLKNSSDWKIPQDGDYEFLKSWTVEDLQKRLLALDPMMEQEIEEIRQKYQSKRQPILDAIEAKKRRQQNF
Nature of the assay: Inhibition of human STK4 at 18.6 nM by HotSpot assay relative to control.

The target of assay [3] is Calcium/calmodulin-dependent protein kinase type II subunit delta (Homo sapiens) (UniProt Q13557). The assay is described as follows: Inhibition of human CAMK2d at 1.82 nM by HotSpot assay relative to control.
The target of assay [4] is T3, Serine/threonine-protein kinase 17A (Homo sapiens) (UniProt Q9UEE5).
T3 sequence (whole entry): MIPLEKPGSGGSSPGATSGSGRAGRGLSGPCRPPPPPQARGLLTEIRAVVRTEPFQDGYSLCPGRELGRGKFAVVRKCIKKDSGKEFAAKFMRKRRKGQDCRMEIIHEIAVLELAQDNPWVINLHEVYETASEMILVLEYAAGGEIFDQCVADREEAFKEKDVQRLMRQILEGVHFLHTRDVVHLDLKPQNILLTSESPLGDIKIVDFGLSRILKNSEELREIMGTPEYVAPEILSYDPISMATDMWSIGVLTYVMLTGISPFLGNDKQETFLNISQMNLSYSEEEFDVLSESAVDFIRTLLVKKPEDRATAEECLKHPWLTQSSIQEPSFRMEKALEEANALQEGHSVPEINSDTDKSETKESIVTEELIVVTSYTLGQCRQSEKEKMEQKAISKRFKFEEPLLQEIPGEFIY
The assay is described as follows: Inhibition of human DRAK1 at 1.82 nM by HotSpot assay relative to control.

Assay [5] concerns the target T4, Serine/threonine-protein kinase Sgk2 (Homo sapiens) (UniProt Q9HBY8).
T4 sequence (whole entry): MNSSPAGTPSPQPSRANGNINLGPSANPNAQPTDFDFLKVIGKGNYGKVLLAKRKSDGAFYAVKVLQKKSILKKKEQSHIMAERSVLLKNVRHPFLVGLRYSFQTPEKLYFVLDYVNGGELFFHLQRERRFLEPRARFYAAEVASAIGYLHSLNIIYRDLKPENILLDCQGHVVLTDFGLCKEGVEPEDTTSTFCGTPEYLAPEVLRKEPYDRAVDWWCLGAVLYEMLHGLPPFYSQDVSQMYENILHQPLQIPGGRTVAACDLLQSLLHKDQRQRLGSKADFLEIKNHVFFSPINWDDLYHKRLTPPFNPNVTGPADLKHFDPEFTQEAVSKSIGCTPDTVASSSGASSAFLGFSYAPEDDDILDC
The assay is described as follows: Inhibition of human SGK2 at 1.82 nM by HotSpot assay relative to control.

In assay [6] the target is T5, Testis-specific serine/threonine-protein kinase 1 (Homo sapiens) (UniProt Q9BXA7).
T5 sequence (whole entry): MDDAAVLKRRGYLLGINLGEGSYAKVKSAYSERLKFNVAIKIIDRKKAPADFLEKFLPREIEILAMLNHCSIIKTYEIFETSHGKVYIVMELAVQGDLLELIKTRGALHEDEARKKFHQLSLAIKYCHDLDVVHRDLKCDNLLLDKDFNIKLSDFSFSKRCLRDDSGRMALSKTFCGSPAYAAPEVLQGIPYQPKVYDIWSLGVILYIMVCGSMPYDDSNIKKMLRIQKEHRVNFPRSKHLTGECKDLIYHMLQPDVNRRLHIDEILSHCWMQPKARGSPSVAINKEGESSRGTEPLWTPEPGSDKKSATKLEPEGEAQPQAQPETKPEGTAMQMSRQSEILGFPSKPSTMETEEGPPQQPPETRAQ
Nature of the assay: Inhibition of human TSSK1 at 1.82 nM by HotSpot assay relative to control.

The structures appear in SMILES notation.

Chain of Calcium/calmodulin-dependent protein kinase type II subunit delta (Homo sapiens) (Q13557 whole entry): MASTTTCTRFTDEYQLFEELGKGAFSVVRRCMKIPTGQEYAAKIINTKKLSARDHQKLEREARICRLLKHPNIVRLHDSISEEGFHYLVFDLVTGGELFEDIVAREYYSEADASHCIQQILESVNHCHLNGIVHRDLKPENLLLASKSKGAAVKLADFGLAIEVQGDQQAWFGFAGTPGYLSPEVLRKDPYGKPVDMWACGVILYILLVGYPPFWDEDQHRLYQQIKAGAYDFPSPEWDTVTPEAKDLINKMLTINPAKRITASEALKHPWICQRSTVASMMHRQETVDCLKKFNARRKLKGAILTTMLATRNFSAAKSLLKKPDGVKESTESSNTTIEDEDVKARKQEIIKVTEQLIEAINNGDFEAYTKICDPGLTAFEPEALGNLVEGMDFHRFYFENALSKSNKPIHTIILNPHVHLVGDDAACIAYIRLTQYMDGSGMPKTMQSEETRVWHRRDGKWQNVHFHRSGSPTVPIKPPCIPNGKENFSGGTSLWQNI

With `C[C@]1(O)C[C@@H](c2nc(-c3ccc4ccc(-c5ccccc5)nc4c3)c3c(N)nccn32)C1`, the results for the inhibition in assay [1] and in assay [2] were -7.65% and 6.04%, respectively.

In the case of `C[C@@]1(C(=O)Nc2ccc(F)nc2)CCCN1c1nc(Nc2cc(C3CC3)n[nH]2)c2cccn2n1`, the inhibition in assay [3] is -2.72%; in assay [4], 2.5%; in assay [5] it was -0.21%; in assay [6], 4.11%.

What is called inhibition is the relative decrease from the control value, in per cent.

The values above are taken from ChEMBL document CHEMBL5653615 (J Biol Chem, 2013).
